Laboratory results: patent US20100056515A1, “BENZIMIDAZOLE COMPOUNDS” (priority 2006, published 2010)

Assays:
[1] = target: T1, human CRF receptor (Homo sapiens, UniProt P34998); assay: Measurement of CRF Binding Inhibitory Rate (receptor binding experiment with 125I-CRF); details: human CRF receptor expressing CHO cellular membrane fraction; 50 pM ovine 125I-CRF; 0.05 nM to 10 μM of compound; room temperature 1.5 hr; read-out: IC50 values (CRF binding inhibition)
T1 construct: expressed in transfected cells; host or cells: CHO cells (membrane fraction)
T1 sequence (P34998 24-415): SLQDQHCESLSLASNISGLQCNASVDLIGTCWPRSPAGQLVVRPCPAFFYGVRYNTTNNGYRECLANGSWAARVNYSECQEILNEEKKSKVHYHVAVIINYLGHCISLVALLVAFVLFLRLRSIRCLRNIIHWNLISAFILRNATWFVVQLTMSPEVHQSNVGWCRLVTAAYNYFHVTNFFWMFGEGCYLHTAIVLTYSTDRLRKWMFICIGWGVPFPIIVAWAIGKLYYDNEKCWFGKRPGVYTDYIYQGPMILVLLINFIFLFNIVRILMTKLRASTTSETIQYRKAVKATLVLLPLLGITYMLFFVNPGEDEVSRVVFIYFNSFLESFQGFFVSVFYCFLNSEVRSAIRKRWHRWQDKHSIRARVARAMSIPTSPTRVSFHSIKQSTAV
Description: Measurement of CRF Binding Inhibitory Rate
A receptor binding experiment was carried out using a human CRF receptor expressing CHO cellular membrane fraction and ovine CRF, [^125I]-tyr^0(^125I-CRF). 1000 nM of a test compound was incubated with 1 μg of human CRF receptor expressing CHO cellular membrane fraction and 50 pM of ^125I-CRF in a binding assay buffer (50 mM Tris-HCl, 5 mM EDTA, 10 mM MgCl2, 0.05% CHAPS, 0.1% BSA, 0.5 mM PMSF, 0.1 μg/mL pepstatin, 20 μg/mL leupeptin, pH 7.5). In addition, for measuring nonspecific binding (NSB), 0.1 μM unlabelled human Urocortin was incubated with 5 μg of human CRF receptor expressing CHO cellular membrane fraction and 50 pM of ^125I-CRF in a binding assay buffer. After a binding reaction was carried out at room temperature for 1.5 hr, the membrane was entrapped on a glass filter (UniFilter plate GF-C/Perkin Elmer) by suction filtration using a cell harvester (Perkin Elmer), and washed with ice-cooled 50 mM Tris-HCl (pH 7.5). After drying the glass filter, a liquid scintillation cocktail (Microscinti 0, Perkin Elmer) was added, and the radioactivity of ^125I-CRF remaining on a glass filter was measured using Topcount (Perkin Elmer).
(TB-SB)/(TB-NSB)×100 (SB: radioactivity when a compound is added, TB: maximum binding radioactivity, NSB: nonspecific binding radioactivity) were calculated to obtain binding inhibitory rates under the range of the presence from 0.05 nM to 10 μM of each compounds. The IC50 values were calculated by using GraphPad Prism software.

SMILES	IC50 [1]	melting point
CCC(CC)c1ccc(Cl)c2nc(Oc3c(C)cc(S(N)(=O)=O)cc3Cl)n(C)c12 [Example 40, 3-Chloro-4-{[4-chloro-7-(1-ethylpropyl)-1-methyl-1H-benzimidazol-2-yl]oxy}-5-methylbenzenesulfonamide]	< 1000 nM	293 to 294 °C
CCC(CC)c1ccc(Cl)c2nc(Oc3c(Cl)cc(Cl)cc3N3CCOCC3)n(C)c12 [Example 25, 4-Chloro-2-(2,4-dichloro-6-morpholin-4-ylphenoxy)-7-(1-ethylpropyl)-1-methyl-1H-benzimidazole]	< 1000 nM	155 to 157 °C
CCC(CC)c1ccc(Cl)c2nc(Oc3c(Cl)cc(Cl)cc3-n3ccnc3)n(C)c12 [Example 27, 4-Chloro-2-[2,4-dichloro-6-(1H-imidazol-1-yl)phenoxy]-7-(1-ethylpropyl)-1-methyl-1H-benzimidazole]	< 1000 nM	134 to 135 °C
CCC(CC)c1ccc(Cl)c2nc(Oc3c(OC)cc(C)nc3N(C)C)n(C)c12 [Example 52, 3-{[4-Chloro-7-(1-ethylpropyl)-1-methyl-1H-benzimidazol-2-yl]oxy}-4-methoxy-N,N,6-trimethylpyridin-2-amine]	< 1000 nM	202 to 203 °C
CCC(CC)c1ccc(Cl)c2nc(Oc3c(Cl)cc(OC(F)(F)F)cc3SC)n(C)c12 [Example 42, 4-Chloro-2-[2-chloro-6-(methylthio)-4-(trifluoromethoxy)phenoxy]-7-(1-ethylpropyl)-1-methyl-1H-benzimidazole]	< 1000 nM	138 to 139 °C
CCC(CC)c1ccc(OC)c2nc(Nc3ccc(Cl)cc3Br)n(C)c12 [Example 19, N-(2-Bromo-4-chlorophenyl)-7-(1-ethylpropyl)-4-methoxy-1-methyl-1H-benzimidazol-2-amine]	< 1000 nM	193 to 195 °C
CCC(CC)c1ccc(Cl)c2nc(Oc3c(C)cc([S+](C)[O-])cc3Cl)n(C)c12 (stereo not shown) [Example 37, 4-Chloro-2-[2-chloro-6-methyl-4-(methylsulfinyl)phenoxy]-7-(1-ethylpropyl)-1-methyl-1H-benzimidazole]	< 1000 nM	182 to 184 °C
CCC(CC)c1ccc(OC)c2nc(Oc3ccc(C(F)(F)F)cc3N(C)C)n(C)c12 [Example 12, 2-{[7-(1-Ethylpropyl)-4-methoxy-1-methyl-1H-benzimidazol-2-yl]oxy}-N,N-dimethyl-5-(trifluoromethyl)aniline]	< 1000 nM	131 to 133 °C
CCC(CC)c1ccc(Cl)c2nc(Oc3c(C)cc(C(C)=O)cc3Cl)n(C)c12 [Example 35, 1-(3-Chloro-4-{[4-chloro-7-(1-ethylpropyl)-1-methyl-1H-benzimidazol-2-yl]oxy}-5-methylphenyl)ethanone]	< 1000 nM	160 to 161 °C
CCC(CC)c1ccc(Cl)c2nc(Oc3c(Cl)cc(Cl)cc3N(C)C)n(C)c12 [Example 24, 3,5-Dichloro-2-{[4-chloro-7-(1-ethylpropyl)-1-methyl-1H-benzimidazol-2-yl]oxy}-N,N-dimethylaniline]	< 1000 nM	172 to 173 °C
CCC(CC)c1ccc(OC)c2nc(Oc3ccc(C)nc3N(C)C)n(C)c12 [Example 5, 3-{[7-(1-Ethylpropyl)-4-methoxy-1-methyl-1H-benzimidazol-2-yl]oxy}-N,N,6-trimethylpyridin-2-amine]	< 1000 nM	143 to 144 °C
CCC(CC)c1ccc(OC)c2nc(Oc3c(F)cc(Br)cc3Cl)n(C)c12 [Example 81, 2-(4-Bromo-2-chloro-6-fluorophenoxy)-7-(1-ethylpropyl)-4-methoxy-1-methyl-1H-benzimidazole]	< 1000 nM	129 to 131 °C
CCC(CC)c1ccc(OC)c2nc(Oc3ccc(OC(F)(F)F)cc3Br)n(C)c12 [Example 10, 2-[2-Bromo-4-(trifluoromethoxy)phenoxy]-7-(1-ethylpropyl)-4-methoxy-1-methyl-1H-benzimidazole]	< 1000 nM	117 to 118 °C
CCC(CC)c1ccc(Cl)c2nc(Oc3c(Cl)cc(Cl)cc3C#N)n(C)c12 [Example 31, 3,5-Dichloro-2-{[4-chloro-7-(1-ethylpropyl)-1-methyl-1H-benzimidazol-2-yl]oxy}benzonitrile]	< 1000 nM	155 to 156 °C
CCC(CC)c1ccc(Cl)c2nc(Oc3c(Cl)cc(Cl)cc3N3CCCC3)n(C)c12 [Example 29, 4-Chloro-2-(2,4-dichloro-6-pyrrolidin-1-ylphenoxy)-7-(1-ethylpropyl)-1-methyl-1H-benzimidazole]	< 1000 nM	209 to 210 °C
CCC(CC)c1ccc(OC)c2nc(Oc3c(C)cc(OC(F)(F)F)cc3CN(C)C)n(C)c12.Cl [Example 15, 1-[2-{[7-(1-Ethylpropyl)-4-methoxy-1-methyl-1H-benzimidazol-2-yl]oxy}-3-methyl-5-(trifluoromethoxy)phenyl]-N,N-dimethylmethanamine Hydrochloride]	< 1000 nM	92 to 94 °C
CCC(CC=O)c1ccc(Cl)c2nc(Oc3c(C)cc(Cl)cc3Cl)n(C)c12 (stereo not shown) [Example 98, 3-[4-Chloro-2-(2,4-dichloro-6-methylphenoxy)-1-methyl-1H-benzimidazol-7-yl]pentanal]	< 1000 nM	157 to 158 °C
CCC(CC)c1ccc(Cl)c2nc(Oc3c(C)cc(S(C)(=O)=O)cc3Cl)n(C)c12 [Example 38, 4-Chloro-2-[2-chloro-6-methyl-4-(methylsulfonyl)phenoxy]-7-(1-ethylpropyl)-1-methyl-1H-benzimidazole]	< 1000 nM	199 to 200 °C
CCC(CCO)c1ccc(Cl)c2nc(Oc3c(C)cc(Cl)cc3Cl)n(C)c12 (stereo not shown) [Example 97, 3-[4-Chloro-2-(2,4-dichloro-6-methylphenoxy)-1-methyl-1H-benzimidazol-7-yl]pentan-1-ol]	< 1000 nM	165 to 167 °C
CCC(CC)c1ccc(Cl)c2nc(Oc3c(Cl)cc(Cl)cc3CN(C)C)n(C)c12 [Example 86, 1-(3,5-Dichloro-2-{[4-chloro-7-(1-ethylpropyl)-1-methyl-1H-1-benzimidazol-2-yl]oxy}phenyl)-N,N-dimethylmethanamine]	< 1000 nM	149 to 151 °C
CCC(CC)c1ccc(Cl)c2nc(Oc3c(Cl)cc(Cl)cc3CN3CCCC3)n(C)c12 [Example 78, 4-Chloro-2-[2,4-dichloro-6-(pyrrolidin-1-ylmethyl)phenoxy]-7-(1-ethylpropyl)-1-methyl-1H-benzimidazole]	< 1000 nM	122 to 123 °C
CCC(CC)c1ccc(Cl)c2nc(Oc3c(Cl)cc(Cl)c4c3CN(C)C4)n(C)c12 [Example 55, 4-Chloro-2-[(5,7-dichloro-2-methyl-2,3-dihydro-1H-isoindol-4-yl)oxy]-7-(1-ethylpropyl)-1-methyl-1H-benzimidazole]	< 1000 nM	148 to 149 °C
CCC(CC)c1ccc(Cl)c2nc(Oc3c(Cl)cc(OC(F)(F)F)cc3S(C)(=O)=O)n(C)c12 [Example 44, 4-Chloro-2-[2-chloro-6-(methylsulfonyl)-4-(trifluoromethoxy)phenoxy]-7-(1-ethylpropyl)-1-methyl-1H-benzimidazole]	< 1000 nM	164 to 165 °C
CCC(CO)c1ccc(Cl)c2nc(Oc3c(C)cc(Cl)cc3Cl)n(C)c12 (stereo not shown) [Example 94, 2-[4-Chloro-2-(2,4-dichloro-6-methylphenoxy)-1-methyl-1H-benzimidazol-7-yl]butan-1-ol]	< 1000 nM	208 to 209 °C
CCC(CC)c1cccc2nc(Oc3c(C)cc(Cl)cc3Cl)n(C)c12 [Example 91, 2-(2,4-Dichloro-6-methylphenoxy)-7-(1-ethylpropyl)-1-methyl-1H-benzimidazole]	< 1000 nM	91 to 92 °C
CCC(CC)c1ccc(Cl)c2nc(Oc3ccc(N(C)C)cc3Cl)n(C)c12 [Example 83, 3-Chloro-4-{[4-chloro-7-(1-ethylpropyl)-1-methyl-1H-benzimidazol-2-yl]oxy}-N,N-dimethylaniline]	< 1000 nM	148 to 149 °C
